Source: ChEMBL document CHEMBL5500408, “A New Gramicidin S Analogue with Potent Antibacterial Activity and Negligible Hemolytic Toxicity” (J Med Chem, 2024)
Converted amounts (≈) assume the structure as drawn. Residues, ends and D or L forms follow the SMILES beside them.

Columns and labels:
Staphylococcus aureus [1] = experiment: Antibacterial activity against methicillin-resistant Staphylococcus aureus […] incubated for 16 to 20 hrs by CLSI based broth microdilution method; type: functional; conditions: time 16-20 hrs
[2] = Hemolytic activity in sheep erythrocytes incubated for 30 mins by absorbance based assay; type: toxicity, cell-based, Ovis aries, Erythrocyte
Staphylococcus aureus [3] = experiment: Antibacterial activity against methicillin-sensitive Staphylococcus aureus ATCC 49775 incubated for 16 to 20 hrs by CLSI based broth microdilution method; type: functional; conditions: time 16-20 hrs
Staphylococcus aureus [4] = experiment: Antibacterial activity against methicillin-resistant Staphylococcus aureus ATCC USA300 incubated for 16 to 20 hrs by CLSI based broth microdilution method; type: functional; conditions: time 16-20 hrs
[5] = Retention time of the compound by RP-HPLC analysis; type: physicochemical
Staphylococcus aureus [6] = experiment: Antibacterial activity against methicillin-sensitive Staphylococcus aureus ATCC 29213 incubated for 16 to 20 hrs by CLSI based broth microdilution method; type: functional; conditions: time 16-20 hrs
[7] = Nephrotoxicity against HEK293 cells assessed as cell viability at 12.5 uM incubated for 24 hrs by MTT assay relative to control; type: toxicity, cell-based; conditions: human, read-out: Activity
HEK293 = experiment: Nephrotoxicity against HEK293 cells at MIC incubated for 24 hrs by MTT assay; type: toxicity, cell-based; conditions: human, hek293, 24 h

SMILES: CC(C)C[C@@H]1NC(=O)[C@H](CCCNC(=N)N)NC(=O)[C@H](C(C)C)NC(=O)[C@@H]2CCCN2C(=O)[C@@H](Cc2ccccc2)NC(=O)[C@H](CC(C)C)NC(=O)[C@H](CCCNC(=N)N)NC(=O)[C@H](C(C)C)NC(=O)[C@@H]2CCCN2C(=O)[C@@H](Cc2ccccc2)NC1=O
- MIC (Staphylococcus aureus [1]): 8 µg/mL (≈ 6.53 µM)
- HC50 at 0.5 h [2]: 25.4 µM
- MIC (Staphylococcus aureus [3]): 8 µg/mL (≈ 6.53 µM)
- MIC (Staphylococcus aureus [4]): 8 µg/mL (≈ 6.53 µM)
- Retention_time [5]: 18.62 min
- MIC (Staphylococcus aureus [6]): 8 µg/mL (≈ 6.53 µM)

SMILES: CC(C)C[C@@H]1NC(=O)[C@H](CCCNC(=N)N)NC(=O)[C@H](C(C)C)NC(=O)[C@@H]2CCCN2C(=O)[C@@H](Cc2c[nH]cn2)NC(=O)[C@H](CC(C)C)NC(=O)[C@H](CCCN)NC(=O)[C@H](C(C)C)NC(=O)[C@@H]2CCCN2C(=O)[C@@H](Cc2ccccc2)NC1=O
- MIC (Staphylococcus aureus [1]): 16 µg/mL (≈ 13.6 µM)
- HC50 at 0.5 h [2]: > 100 µM
- MIC (Staphylococcus aureus [3]): 16 µg/mL (≈ 13.6 µM)
- MIC (Staphylococcus aureus [4]): 16 µg/mL (≈ 13.6 µM)
- Retention_time [5]: 16.09 min
- MIC (Staphylococcus aureus [6]): 16 µg/mL (≈ 13.6 µM)

SMILES: CC(C)C[C@@H]1NC(=O)[C@H](CCCN)NC(=O)[C@H](C(C)C)NC(=O)[C@@H]2CCCN2C(=O)[C@@H](CCCNC(=N)N)NC(=O)[C@H](CC(C)C)NC(=O)[C@H](CCCN)NC(=O)[C@H](C(C)C)NC(=O)[C@@H]2CCCN2C(=O)[C@@H](CCCNC(=N)N)NC1=O
- MIC (Staphylococcus aureus [1]): 16 µg/mL (≈ 13.8 µM)
- HC50 at 0.5 h [2]: > 100 µM
- MIC (Staphylococcus aureus [3]): 32 µg/mL (≈ 27.6 µM)
- MIC (Staphylococcus aureus [4]): 32 µg/mL (≈ 27.6 µM)
- Retention_time [5]: 14.56 min
- MIC (Staphylococcus aureus [6]): 16 µg/mL (≈ 13.8 µM)

SMILES: CC(C)C[C@@H]1NC(=O)[C@H](CCCN)NC(=O)[C@H](C(C)C)NC(=O)[C@@H]2CCCN2C(=O)[C@@H](Cc2ccccc2)NC(=O)[C@H](CC(C)C)NC(=O)[C@H](CCCNC(=N)N)NC(=O)[C@H](C(C)C)NC(=O)[C@@H]2CCCN2C(=O)[C@@H](Cc2ccccc2)NC1=O
- MIC (Staphylococcus aureus [1]): 16 µg/mL (≈ 13.5 µM)
- HC50 at 0.5 h [2]: 46.2 µM
- MIC (Staphylococcus aureus [3]): 4 µg/mL (≈ 3.38 µM)
- MIC (Staphylococcus aureus [4]): 8 µg/mL (≈ 6.76 µM)
- Retention_time [5]: 18.74 min
- MIC (Staphylococcus aureus [6]): 8 µg/mL (≈ 6.76 µM)

SMILES: CC(C)C[C@@H]1NC(=O)[C@H](CCCN)NC(=O)[C@H](C(C)C)NC(=O)[C@@H]2CCCN2C(=O)[C@@H](Cc2c[nH]cn2)NC(=O)[C@H](CC(C)C)NC(=O)[C@H](CCCN)NC(=O)[C@H](C(C)C)NC(=O)[C@@H]2CCCN2C(=O)[C@@H](Cc2c[nH]cn2)NC1=O
- MIC (Staphylococcus aureus [1]): 256 µg/mL (≈ 228 µM)
- HC50 at 0.5 h [2]: > 100 µM
- MIC (Staphylococcus aureus [3]): 256 µg/mL (≈ 228 µM)
- MIC (Staphylococcus aureus [4]): > 256 µg/mL
- Retention_time [5]: 14.01 min
- MIC (Staphylococcus aureus [6]): 256 µg/mL (≈ 228 µM)

SMILES: CC(C)C[C@@H]1NC(=O)[C@H](CCCN)NC(=O)[C@H](C(C)C)NC(=O)[C@@H]2CCCN2C(=O)[C@@H](Cc2ccccc2)NC(=O)[C@H](CC(C)C)NC(=O)[C@H](CCCN)NC(=O)[C@H](C(C)C)NC(=O)[C@@H]2CCCN2C(=O)[C@@H](Cc2ccccc2)NC1=O [GRAMICIDIN S] (HELM PEPTIDE1{L.[dF].P.V.[Orn].L.[dF].P.V.[Orn]}$PEPTIDE1,PEPTIDE1,1:R1-10:R2$$$V2.0)
- MIC (Staphylococcus aureus [1]): 4 µg/mL (≈ 3.5 µM)
- HC50 at 0.5 h [2]: 60.1 µM
- MIC (Staphylococcus aureus [3]): 4 µg/mL (≈ 3.5 µM)
- MIC (Staphylococcus aureus [4]): 4 µg/mL (≈ 3.5 µM)
- Retention_time [5]: 18.57 min
- MIC (Staphylococcus aureus [6]): 4 µg/mL (≈ 3.5 µM)
- viability at 24 h, 12.5 µM [7]: 25%

SMILES: CC(C)C[C@@H]1NC(=O)[C@H](CCCN)NC(=O)[C@H](C(C)C)NC(=O)[C@@H]2CCCN2C(=O)[C@@H](Cc2ccccc2)NC(=O)[C@H](CC(C)C)NC(=O)[C@H](CCCNC(=N)N)NC(=O)[C@H](C(C)C)NC(=O)[C@@H]2CCCN2C(=O)[C@@H](CCCNC(=N)N)NC1=O (HELM PEPTIDE1{L.[dF].P.V.[Orn].L.[dR].P.V.R}$PEPTIDE1,PEPTIDE1,1:R1-10:R2$$$V2.0)
- MIC (Staphylococcus aureus [1]): 8 µg/mL (≈ 6.71 µM)
- HC50 at 0.5 h [2]: 87.2 µM
- MIC (Staphylococcus aureus [3]): 8 µg/mL (≈ 6.71 µM)
- MIC (Staphylococcus aureus [4]): 8 µg/mL (≈ 6.71 µM)
- Retention_time [5]: 16.47 min
- MIC (Staphylococcus aureus [6]): 8 µg/mL (≈ 6.71 µM)

SMILES: CC(C)C[C@@H]1NC(=O)[C@H](CCCNC(=N)N)NC(=O)[C@H](C(C)C)NC(=O)[C@@H]2CCCN2C(=O)[C@@H](Cc2ccccc2)NC(=O)[C@H](CC(C)C)NC(=O)[C@H](CCCN)NC(=O)[C@H](C(C)C)NC(=O)[C@@H]2CCCN2C(=O)[C@@H](CCCNC(=N)N)NC1=O
- MIC (Staphylococcus aureus [1]): 8 µg/mL (≈ 6.71 µM)
- HC50 at 0.5 h [2]: > 100 µM
- MIC (Staphylococcus aureus [3]): 8 µg/mL (≈ 6.71 µM)
- MIC (Staphylococcus aureus [4]): 8 µg/mL (≈ 6.71 µM)
- Retention_time [5]: 16.47 min
- MIC (Staphylococcus aureus [6]): 8 µg/mL (≈ 6.71 µM)

SMILES: CC(C)C[C@@H]1NC(=O)[C@H](CCCN)NC(=O)[C@H](C(C)C)NC(=O)[C@@H]2CCCN2C(=O)[C@@H](Cc2ccccc2)NC(=O)[C@H](CC(C)C)NC(=O)[C@H](CCCN)NC(=O)[C@H](C(C)C)NC(=O)[C@@H]2CCCN2C(=O)[C@@H](CCCNC(=N)N)NC1=O (HELM PEPTIDE1{L.[dF].P.V.[Orn].L.[dR].P.V.[Orn]}$PEPTIDE1,PEPTIDE1,1:R1-10:R2$$$V2.0)
- MIC (Staphylococcus aureus [1]): 8 µg/mL (≈ 6.95 µM)
- Activity (HEK293): Non-Toxic
- HC50 at 0.5 h [2]: > 100 µM
- MIC (Staphylococcus aureus [3]): 8 µg/mL (≈ 6.95 µM)
- MIC (Staphylococcus aureus [4]): 8 µg/mL (≈ 6.95 µM)
- Retention_time [5]: 16.22 min
- MIC (Staphylococcus aureus [6]): 8 µg/mL (≈ 6.95 µM)
- viability at 24 h, 12.5 µM [7]: ~90%

SMILES: CC(C)C[C@@H]1NC(=O)[C@H](CCCN)NC(=O)[C@H](C(C)C)NC(=O)[C@H](Cc2c[nH]cn2)NC(=O)[C@@H](Cc2ccccc2)NC(=O)[C@H](CC(C)C)NC(=O)[C@H](CCCN)NC(=O)[C@H](C(C)C)NC(=O)[C@H](Cc2c[nH]cn2)NC(=O)[C@@H](Cc2ccccc2)NC1=O
- MIC (Staphylococcus aureus [1]): 64 µg/mL (≈ 52.4 µM)
- HC50 at 0.5 h [2]: > 100 µM
- MIC (Staphylococcus aureus [3]): 64 µg/mL (≈ 52.4 µM)
- MIC (Staphylococcus aureus [4]): 128 µg/mL (≈ 105 µM)
- Retention_time [5]: 14.74 min
- MIC (Staphylococcus aureus [6]): 64 µg/mL (≈ 52.4 µM)
